From publication PMC2820364 (The Biochemical journal, 2008)

What was measured:
[1] = biological target: p110α WT (Homo sapiens, UniProt P42336); assay: PI3K lipid kinase inhibition assay, wild-type p110α; assay type: biochemical; details: IC50 ratio p110α WT / p110β WT
[2] = biological target: p110α (Q859D) (Homo sapiens, UniProt P42336, Q859D); assay: PI3K lipid kinase inhibition assay, p110α Q859D mutant; assay type: biochemical; details: for Selectivity ratio α/β Gln↔Asp: IC50 ratio p110α-(Q859D) / p110β-(D862Q)
p110α (Q859D), sequence (P42336 whole entry Q859D, species assumed): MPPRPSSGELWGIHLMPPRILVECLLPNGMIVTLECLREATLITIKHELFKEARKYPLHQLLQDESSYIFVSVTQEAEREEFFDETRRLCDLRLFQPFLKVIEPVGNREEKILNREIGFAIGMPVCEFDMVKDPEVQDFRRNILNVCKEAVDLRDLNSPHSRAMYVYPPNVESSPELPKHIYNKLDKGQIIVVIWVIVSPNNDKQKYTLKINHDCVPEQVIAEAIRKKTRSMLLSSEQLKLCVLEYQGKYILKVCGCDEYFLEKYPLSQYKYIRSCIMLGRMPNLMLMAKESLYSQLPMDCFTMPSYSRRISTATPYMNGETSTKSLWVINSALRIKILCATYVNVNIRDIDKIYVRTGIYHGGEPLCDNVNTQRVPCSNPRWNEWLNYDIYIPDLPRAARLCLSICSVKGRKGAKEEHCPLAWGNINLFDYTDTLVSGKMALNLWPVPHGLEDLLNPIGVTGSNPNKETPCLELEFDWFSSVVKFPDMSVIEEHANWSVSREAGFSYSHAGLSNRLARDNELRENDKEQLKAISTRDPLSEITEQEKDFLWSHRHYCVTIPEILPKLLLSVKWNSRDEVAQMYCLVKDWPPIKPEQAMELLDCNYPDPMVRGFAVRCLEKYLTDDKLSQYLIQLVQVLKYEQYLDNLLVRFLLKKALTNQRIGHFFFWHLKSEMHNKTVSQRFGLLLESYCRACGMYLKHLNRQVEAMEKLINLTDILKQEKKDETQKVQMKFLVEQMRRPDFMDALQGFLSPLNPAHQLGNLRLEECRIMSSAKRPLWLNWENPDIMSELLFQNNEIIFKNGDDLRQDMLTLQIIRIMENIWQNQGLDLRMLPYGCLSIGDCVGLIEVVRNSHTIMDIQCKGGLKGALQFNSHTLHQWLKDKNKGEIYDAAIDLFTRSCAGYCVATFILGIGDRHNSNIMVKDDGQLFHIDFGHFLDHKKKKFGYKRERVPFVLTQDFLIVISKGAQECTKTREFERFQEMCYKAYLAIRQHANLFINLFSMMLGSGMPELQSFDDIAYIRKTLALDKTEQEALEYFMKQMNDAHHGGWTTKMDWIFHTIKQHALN
p110α (Q859D), sequence (P27986 whole entry partner, species assumed): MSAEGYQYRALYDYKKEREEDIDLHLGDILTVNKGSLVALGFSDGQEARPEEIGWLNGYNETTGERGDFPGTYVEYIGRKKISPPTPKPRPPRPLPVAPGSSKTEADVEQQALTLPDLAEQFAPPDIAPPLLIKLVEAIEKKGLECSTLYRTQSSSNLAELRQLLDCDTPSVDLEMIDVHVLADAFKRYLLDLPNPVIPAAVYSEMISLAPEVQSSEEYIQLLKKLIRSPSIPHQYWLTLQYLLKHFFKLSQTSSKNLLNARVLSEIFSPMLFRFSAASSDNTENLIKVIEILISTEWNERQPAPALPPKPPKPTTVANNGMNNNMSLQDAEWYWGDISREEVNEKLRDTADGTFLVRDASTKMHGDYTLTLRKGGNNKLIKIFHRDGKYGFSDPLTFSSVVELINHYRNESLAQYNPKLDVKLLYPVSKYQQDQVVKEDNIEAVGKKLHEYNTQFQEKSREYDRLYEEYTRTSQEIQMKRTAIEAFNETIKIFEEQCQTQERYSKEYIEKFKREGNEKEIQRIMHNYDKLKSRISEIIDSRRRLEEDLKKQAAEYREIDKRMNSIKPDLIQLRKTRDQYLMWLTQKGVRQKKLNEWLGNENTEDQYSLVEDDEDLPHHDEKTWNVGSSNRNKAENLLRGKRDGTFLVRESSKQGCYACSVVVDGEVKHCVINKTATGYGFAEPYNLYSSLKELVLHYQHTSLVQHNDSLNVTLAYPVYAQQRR

[3] = biological target: p110β (D862Q) (Homo sapiens, UniProt P42338, D862Q); assay: PI3K lipid kinase inhibition assay, p110β D862Q mutant; assay type: biochemical
p110β (D862Q), sequence (P42338 whole entry D862Q, species assumed): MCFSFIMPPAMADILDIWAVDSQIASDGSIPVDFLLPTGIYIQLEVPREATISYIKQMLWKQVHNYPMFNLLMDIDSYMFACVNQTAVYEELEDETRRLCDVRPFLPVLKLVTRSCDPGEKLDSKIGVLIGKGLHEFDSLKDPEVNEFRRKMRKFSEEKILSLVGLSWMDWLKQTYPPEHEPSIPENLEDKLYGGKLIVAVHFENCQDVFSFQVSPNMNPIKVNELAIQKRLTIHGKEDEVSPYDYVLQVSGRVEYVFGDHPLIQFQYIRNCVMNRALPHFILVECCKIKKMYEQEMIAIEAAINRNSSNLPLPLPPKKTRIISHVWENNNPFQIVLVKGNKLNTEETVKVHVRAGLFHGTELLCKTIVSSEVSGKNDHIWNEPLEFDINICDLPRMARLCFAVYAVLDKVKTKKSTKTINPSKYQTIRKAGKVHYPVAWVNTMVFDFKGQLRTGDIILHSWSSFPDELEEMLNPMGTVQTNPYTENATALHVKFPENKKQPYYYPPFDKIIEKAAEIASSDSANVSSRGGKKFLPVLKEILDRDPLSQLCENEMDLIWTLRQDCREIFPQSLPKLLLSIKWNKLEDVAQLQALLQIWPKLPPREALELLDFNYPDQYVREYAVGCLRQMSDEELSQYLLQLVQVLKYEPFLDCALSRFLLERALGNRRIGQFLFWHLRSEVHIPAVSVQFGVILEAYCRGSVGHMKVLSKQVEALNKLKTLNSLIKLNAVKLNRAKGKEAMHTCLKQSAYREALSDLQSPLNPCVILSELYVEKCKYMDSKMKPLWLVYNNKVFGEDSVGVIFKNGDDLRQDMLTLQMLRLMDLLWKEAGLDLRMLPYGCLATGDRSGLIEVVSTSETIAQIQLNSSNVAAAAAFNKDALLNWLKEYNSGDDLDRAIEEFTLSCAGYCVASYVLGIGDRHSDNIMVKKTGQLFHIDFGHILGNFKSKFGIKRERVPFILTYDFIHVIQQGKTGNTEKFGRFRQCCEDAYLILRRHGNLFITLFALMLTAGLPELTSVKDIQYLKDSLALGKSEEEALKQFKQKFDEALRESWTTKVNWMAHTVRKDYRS
p110β (D862Q), sequence (P27986 whole entry partner, species assumed): as the sequence (P27986 whole entry partner, species assumed) above

[4] = biological target: p110β (E858H) (Homo sapiens, UniProt P42338, E858H); assay: PI3K lipid kinase inhibition assay, p110β E858H mutant; assay type: biochemical
p110β (E858H), sequence (P42338 whole entry E858H, species assumed): as the sequence (P42338 whole entry D862Q, species assumed) above, with E858H, Q862D counted along it
p110β (E858H), sequence (P27986 whole entry partner, species assumed): as the sequence (P27986 whole entry partner, species assumed) above

[5] = biological target: p110α (H855E) (Homo sapiens, UniProt P42336, H855E); assay: PI3K lipid kinase inhibition assay, p110α H855E mutant; assay type: biochemical; details: for Selectivity ratio α/β His↔Glu: IC50 ratio p110α-(H855E) / p110β-(E858H); for loss of potency at H857E-p110α relative to wild type: mutant printed as H857E
p110α (H855E), sequence (P42336 whole entry H855E, species assumed): as the sequence (P42336 whole entry Q859D, species assumed) above, with H855E, D859Q counted along it
p110α (H855E), sequence (P27986 whole entry partner, species assumed): as the sequence (P27986 whole entry partner, species assumed) above

[6] = system: p110β; details: read-out: IC50 against p110β; 10μM ATP; ref Knight et al. 2006; cited from earlier work
[7] = biological target: p110β WT (Homo sapiens, UniProt P42338); assay: PI3K lipid kinase inhibition assay, wild-type p110β; assay type: biochemical; details: for selectivity for p110β relative to p110α (wild type): wild type enzymes
p110β WT, sequence (P42338 whole entry): as the sequence (P42338 whole entry D862Q, species assumed) above, with Q862D counted along it
p110β WT, sequence (P27986 whole entry partner): as the sequence (P27986 whole entry partner, species assumed) above

p110α WT, sequence (P42336 whole entry): as the sequence (P42336 whole entry Q859D, species assumed) above, with D859Q counted along it
p110α WT, sequence (P27986 whole entry partner): as the sequence (P27986 whole entry partner, species assumed) above

| Selectivity ratio α/β (wt) [1] | loss of potency at Q859D-p110α relative to wild type [2] | Selectivity ratio α/β Gln↔Asp [2] | increase in potency at p110β-D862Q relative to wild type [3] | increase in potency at p110β-E858H relative to wild type [4] | Selectivity ratio α/β His↔Glu [5] | loss of potency at H857E-p110α relative to wild type [5] | effect of p110β D862Q mutation on inhibition (in words) ([3]; compared with wild type p110β) | effect of p110β E858H mutation on inhibition (in words) ([4]; compared with wild type p110β) | Molecule | IC50 [6] [µM] | difference between literature IC50 and IC50 of this study at p110β ([7]; 0.12μM (Knight et al. 2006) v. 7nM) [fold] | selectivity for p110β relative to p110α (wild type) [7] | reduction in potency at p110β-D862Q relative to wild type [3] | reduction in potency at p110β-E858H relative to wild type [4] |
| --- | --- | --- | --- | --- | --- | --- | --- | --- | --- | --- | --- | --- | --- | --- |
| 0.34 | 5-6 fold | 4.59 | approximately 2 fold | approximately 2 fold | 3.56 | 5-6 fold | – | – | O=c1cc(N2CCOCC2)oc2c(OCc3cccnc3)cccc12 [TGX132] | – | – | – | – | – |
| 4.30 | 3 fold | 12.65 | – | – | 17.3 | 3 fold | indistinguishable from the wild type | indistinguishable from the wild type | O=c1cc(N2CCOCC2)oc2c(OCc3ccccc3)cccc12 [TGX102] | – | – | approximately 4 fold | – | – |

| Molecule | Selectivity ratio α/β (wt) [1] | loss of potency at Q859D-p110α relative to wild type [2] | Selectivity ratio α/β Gln↔Asp [2] | increase in potency at p110β-D862Q relative to wild type [3] | increase in potency at p110β-E858H relative to wild type [4] | Selectivity ratio α/β His↔Glu [5] | loss of potency at H857E-p110α relative to wild type [5] | effect of p110β D862Q mutation on inhibition (in words) ([3]; compared with wild type p110β) | effect of p110β E858H mutation on inhibition (in words) ([4]; compared with wild type p110β) | IC50 [6] [µM] | difference between literature IC50 and IC50 of this study at p110β ([7]; 0.12μM (Knight et al. 2006) v. 7nM) [fold] | selectivity for p110β relative to p110α (wild type) [7] | reduction in potency at p110β-D862Q relative to wild type [3] | reduction in potency at p110β-E858H relative to wild type [4] |
| --- | --- | --- | --- | --- | --- | --- | --- | --- | --- | --- | --- | --- | --- | --- |
| TGX286 | 142.0 | – | 126.2 | – | – | 106.4 | – | – | – | 0.12 | 17 | over 140 fold | approximately 2 fold | approximately 2 fold |
